Data set [1] in a line: Volume of distribution at steady state in cynomolgus monkey at 1 mg/kg, iv. The class given is ADME, organism-based, Macaca fascicularis. Further details: dose 1 mg/kg, route intravenous. To be noted: in vivo, read-out: Vdss.
Data set [2] in a line: Half life in dog at 1 mg/kg, iv. Format: ADME, organism-based, Canis lupus familiaris. Also noted: dose 1 mg/kg, route intravenous. As to conditions: in vivo.
The nature of data set [3]: Clearance in rhesus monkey at 1 mg/kg, iv. Format: ADME, organism-based, Macaca mulatta. Also noted: dose 1 mg/kg, route intravenous. To be noted: in vivo.
Data set [4] can be described thus: Oral bioavailability in mouse at 10 mg/kg. The class given is ADME, organism-based. As to conditions: in vivo.
Data set [5] in a line: in vivo. As to conditions: Sprague-Dawley, rat, po, 10 mg/kg.
A short description of data set [6]: Half life in rabbit at 1 mg/kg, iv. The class given is ADME, organism-based, Oryctolagus cuniculus. To be noted: in vivo. Also noted: dose 1 mg/kg, route intravenous.
Data set [7] in a line: Clearance in rabbit at 1 mg/kg, iv. Format: ADME, organism-based, Oryctolagus cuniculus. As to conditions: in vivo. Further details: dose 1 mg/kg, route intravenous.
A short description of data set [8]: in vivo. As to conditions: Sprague-Dawley, rat, iv, 1 mg/kg.
Data set [9] is described as follows: Clearance in cynomolgus monkey at 1 mg/kg, iv. Also noted: dose 1 mg/kg, route intravenous. To be noted: in vivo. The class given is ADME, organism-based, Macaca fascicularis.
Data set [10] can be described thus: Oral bioavailability in dog at 3 mg/kg. The class given is ADME, organism-based, Canis lupus familiaris. To be noted: in vivo.
Data set [11] in a line: Clearance in dog at 1 mg/kg, iv. The class given is ADME, organism-based, Canis lupus familiaris. Further details: dose 1 mg/kg, route intravenous. To be noted: in vivo.
Data set [12] is described as follows: Oral bioavailability in rhesus monkey at 5 mg/kg. To be noted: in vivo. Format: ADME, organism-based, Macaca mulatta.
Data set [13] in a line: Volume of distribution at steady state in rhesus monkey at 1 mg/kg, iv. The class given is ADME, organism-based, Macaca mulatta. Further details: dose 1 mg/kg, route intravenous. As to conditions: in vivo, read-out: Vdss.
Data set [14] can be described thus: Half life in mouse at 1 mg/kg, iv. The class given is ADME, organism-based. To be noted: in vivo. Also noted: dose 1 mg/kg, route intravenous.
The nature of data set [15]: Clearance in mouse at 1 mg/kg, iv. Further details: dose 1 mg/kg, route intravenous. To be noted: in vivo. The class given is ADME, organism-based.
Data set [16] is described as follows: Volume of distribution at steady state in mouse at 1 mg/kg, iv. Further details: dose 1 mg/kg, route intravenous. Format: ADME, organism-based. As to conditions: in vivo, read-out: Vdss.
Data set [17] is described as follows: Half life in rhesus monkey at 1 mg/kg, iv. Further details: dose 1 mg/kg, route intravenous. To be noted: in vivo. Format: ADME, organism-based, Macaca mulatta.
The nature of data set [18]: in vivo. As to conditions: Sprague-Dawley, rat, iv, 1 mg/kg. This is another data set of the same source.
A short description of data set [19]: Oral bioavailability in rabbit at 5 mg/kg. Format: ADME, organism-based, Oryctolagus cuniculus. As to conditions: in vivo.
The nature of data set [20]: Half life in Sprague-Dawley rat at 1 mg/kg, iv administered as bolus dose. To be noted: in vivo. Format: ADME, organism-based. Also noted: dose 1 mg/kg, route intravenous.
Data set [21] in a line: Volume of distribution at steady state in dog at 1 mg/kg, iv. The class given is ADME, organism-based, Canis lupus familiaris. Also noted: dose 1 mg/kg, route intravenous. As to conditions: in vivo, read-out: Vdss.
Data set [22] is described as follows: Volume of distribution at steady state in rabbit at 1 mg/kg, iv. As to conditions: in vivo, read-out: Vdss. Further details: dose 1 mg/kg, route intravenous. The class given is ADME, organism-based, Oryctolagus cuniculus.
Data set [23] can be described thus: Oral bioavailability in cynomolgus monkey at 5 mg/kg. The class given is ADME, organism-based, Macaca fascicularis. As to conditions: in vivo.
The nature of data set [24]: Half life in cynomolgus monkey at 1 mg/kg, iv. Format: ADME, organism-based, Macaca fascicularis. Also noted: dose 1 mg/kg, route intravenous. To be noted: in vivo.

Each structure is given as a SMILES string.

A word on the half-life: it is how long it takes for the measured level to halve. By clearance is commonly meant a measure of how efficiently the substance is removed, as volume per time. What is called bioavailability is dose-corrected exposure relative to a reference, in per cent.

As to `Cc1ccc(S(=O)(=O)N2CCNC(=O)[C@H]2CC(=O)N[C@@H]2CCCc3cc(CN4CCCCC4)ccc32)cc1`, the Vd in data set [1] turned out to be 1.6 L/kg; in the data set “in vivo [8]”, 9.3 L/kg; in data set [13], 5.9 L/kg; in data set [16], 6 L/kg; in data set [21], 16.2 L/kg; in data set [22], 6.4 L/kg. Besides, the half-life in [2] is 4.6 h; in data set [6], 2.4 h; in data set [14], 1.4 h; in data set [17], 3.2 h; in data set [20] it was 4.8 h; in [24], 5.6 h. For the same compound, the clearance in [3] is 30 mL/min/kg; in data set [7], 53.3 mL/min/kg; in [9], 10 mL/min/kg; in data set [11], 63.3 mL/min/kg; in data set [15] it was 133 mL/min/kg; in “in vivo [18]” it was 123 mL/min/kg. Moreover, the bioavailability in [4] was 6%; in the data set “in vivo [5]” it was 6%; in data set [10], 24%; in [12], 23%; in [19] it was 5%; in data set [23], 17%.
In the data set “in vivo [8]”, `O=C(C[C@@H]1C(=O)NCCN1S(=O)(=O)c1ccccc1)N[C@@H]1CCCc2cc(CN3CCCCC3)ccc21` came in with a Vd of 9.9 L/kg. The compound also had a clearance in “in vivo [18]” of 90 mL/min/kg.
For the compound `O=C(C[C@@H]1C(=O)NCCN1S(=O)(=O)c1ccc(Cl)cc1)N[C@@H]1CCCc2cc(CN3CCCCC3)ccc21`, in “in vivo [5]”, the bioavailability was determined as 19%. Besides, the Vd in the data set “in vivo [8]” was determined as 11.9 L/kg. In the data set “in vivo [18]”, the clearance was 112 mL/min/kg.
Consider `Cc1ccc(S(=O)(=O)N2CCNC(=O)[C@H]2CC(=O)N[C@@H]2CCCc3cc(CNC(C)(C)C)ccc32)cc1`, for which the bioavailability in the data set “in vivo [5]” turned out to be 0.3%. The compound also yielded a Vd in “in vivo [8]” of 8.34 L/kg. Moreover, the clearance in the data set “in vivo [18]” was 56.7 mL/min/kg.
Turning to `Cc1ccc(S(=O)(=O)N2CCNC(=O)[C@H]2CC(=O)N[C@@H]2CCCc3cc(CNCC(C)(C)C)ccc32)cc1`, in “in vivo [5]”, the bioavailability came to 16%. The compound also came in with a Vd in the data set “in vivo [8]” of 3.4 L/kg. Further, the clearance in “in vivo [18]” was 30 mL/min/kg.

Values taken from ChEMBL document CHEMBL1777801, “3-Oxo-2-piperazinyl acetamides as potent bradykinin B1 receptor antagonists for the treatment of pain and inflammation” (Bioorg Med Chem Lett, 2011).
